Measured values reported in patent US10160812B2, “Bispecific HER2 antibodies” (MedImmune, LLC, priority 2014, dated 2018).

B1: 39S: lead optimized monoclonal antibody derived from the 1.39.1 antibody; VH SEQ ID NO:15, VL SEQ ID NO:16 (antibody, V domains shown)
VH: EVQLVESGGGLVKPGGSLRLSCAASGFTFSSYSMSWVRQAPGKGLEWVSSISSSSSYIYYADSVKGRFTISRDNAKNSLYLQMNSLRAEDTAVYYCARGGDAYNYYYFDYWGQGTLVTVSS
VL: DIVMTQTPLSLSVTPGQPASISCKSSQSVFFRSNNKNILAWYLQKPGQPPQLLIYWASSRESGVPDRFSGSGSGTDFTLKISRVEAEDVGVYYCQQYFGSPFTFGPGTKVDIK

Tests used:
[1] = tested on: NCI-N87; conditions: read-out: In vitro potency (EC50 in pM); NCI-N87, 3 to 4 days
Protocol: A panel of human cancer cell lines expressing various levels of HER2 was used to evaluate the cytotoxic activity of bispecific ADC (Table 5 in Example 1). Briefly, cells were harvested, resuspended, and plated in serum-containing culture media at a density of 5,000 to 20,000 per well (depending on the growth kinetics of each cell line) of 96-well plates in a volume of 100 μL. A 2× concentration of each dose of antibody or ADC to be tested was prepared by diluting the test articles in culture medium. One hundred microliters of each test article was added to cells in triplicate such that the final dose curve ranged from 5 nM down to 0.08 pM in a stepwise 1:4 serial dilution series. The treated cells were incubated at 37° C./5% CO2 for 3 to 4 days, depending on the growth kinetics of each particular cell line. Cell viability was determined using Cell Titer Glo according to manufacturer's instructions. Data are analyzed by the GraphPad Prism software and presented as percent growth inhibition relative to the untreated control. EC50 values were determined using Sigmoidal non-linear regression analysis with GraphPad Prism software and were summarized in Table 6.

[2] = tested on: MDA-MB-468; assay: In vitro cytotoxic activity (Cell Titer Glo); format: cell-based, human; conditions: MDA-MB-468, 3 to 4 days
[3] = tested on: MCF-7; assay: In vitro cytotoxic activity (Cell Titer Glo); format: cell-based, human; conditions: MCF-7, 3 to 4 days
[4] = tested on: NCI-N87 and MDA-MB-468 cells co-culture; assay: Bystander effect co-culture assay (FACS); format: cell-based, human; conditions: co-culture of HER2-overexpressing NCI-N87 and HER2-null MDA-MB-468, 5 nM, 4 days
Protocol: NCI-N87 cells were stably transfected with green fluorescent protein (GFP) and MDA-MB-468 cells were stably transfected with red fluorescent protein (RFP). Both cell lines were harvested, washed, resuspended in culture media and then seeded in the same well of a 6-well plate as co-culture. As a control, each cell line was seeded in a different 6-well plate as single culture (FIG. 28A). To adjust to different growth kinetics, NCI-N87 cells were seeded at 5×10^5 cells/well and MDA-MB-468 cells were seeded at 2×10^5 cells/well. Cells were incubated for 2 days at 37° C./5% CO2. Media were aspirated and fresh media containing 5 nM of antibody or ADC to be tested was added to cells and the plates were incubated for 4 days at 37° C./5% CO2. At the end of treatment, cells in each well were collected, washed, resuspended in 100 μL of ice-cold FACS buffer and then fixed with 2% PFA. Cells were analyzed by a BD LSR II machine and BD FACSDiva™ software. Data were analyzed with FlowJo software.

[5] = tested on: MDA-MB-361 model; assay: CBX xenograft tumor model; format: in vivo, Athymic nude mice; conditions: MDA-MB-361 CBX, 3 mg/kg
Protocol: All mouse experiments were carried out in compliance with the guidelines published by the Association for Assessment and Accreditation of Laboratory Animal Care (AAALAC) and protocols approved by the MedImmune Institutional Animal Care and Use Committee. Athymic nude mice between 4-8 weeks of age were used in the studies. In subcutaneous CBX models, animals were injected unilaterally on the right flank with tumor cells harvested from culture at a specific passage lot. In orthotopic CBX models, xenografts were established by injecting 5×10^6 cells per mouse (suspended in 50% matrigel) into the mammary fat pad on the right flank of animals. In PDX models, animals are implanted unilaterally on the flank with tumor fragments harvested from host animals each implanted from a specific passage lot. Pre-study tumor volumes were recorded for each experiment beginning approximately one week prior to its estimated start date. When tumors reach the appropriate tumor volume initiation (TVI) range (typically 150-250 mm^3), animals are randomized into treatment and control groups and dosing initiated. […] Animals were observed daily and tumor dimensions and body weights were measured and recorded twice weekly. Tumor volumes are calculated using the following formula: tumor volume=π÷6 (length×width^2). […]

[6] = tested on: ZR-75-1; assay: In vitro cytotoxic activity (Cell Titer Glo); format: cell-based, human; conditions: ZR-75-1, 3 to 4 days
[7] = tested on: T47D; assay: In vitro cytotoxic activity (Cell Titer Glo); format: cell-based, human; conditions: 3 to 4 days
[8] = tested on: SKBR-3; assay: In vitro cytotoxic activity (Cell Titer Glo); format: cell-based, human; conditions: SKBR-3, 3 to 4 days; read-out: In vitro potency (EC50 in pM)
[9] = tested on: T-DM1 resistant NCI-N87 tumor model; assay: In vivo tumor model with acquired T-DM1 resistance; design: species or system mice; conditions: weekly intravenous dosing, 3 mg/kg (pertuzumab 10 mg/kg), total of 4 doses
Protocol: To establish an in vivo tumor model with acquired T-DM1 resistance, the T-DM1-resistant NCI-N87 cells were injected subcutaneously into the immune-deficient mice. The tumor-bearing mice were treated with 3 mg/kg of T-DM1. It appeared that the in vitro T-DM1 resistance was not fully translated into the in vivo resistance, reflected by considerable variations in tumor growth among animals. Thus, mice with large refractory tumors (˜1000 mm^3 in volume) were selected and the tumor tissue fragments were passaged to new mice until the tumors grew consistently in the presence of weekly treatment of 3 mg/kg T-DM1.

[10] = tested on: MCF7-GTU; assay: In vitro cytotoxic activity (Cell Titer Glo); format: cell-based, human; conditions: 3 to 4 days
[11] = target: mouse Her2 (Mus musculus, UniProt P70424); assay: ProteOn SPR binding of 39S to captured Mouse Her2; conditions: Mouse Her2 control
mouse Her2, sequence (P70424 23-1256): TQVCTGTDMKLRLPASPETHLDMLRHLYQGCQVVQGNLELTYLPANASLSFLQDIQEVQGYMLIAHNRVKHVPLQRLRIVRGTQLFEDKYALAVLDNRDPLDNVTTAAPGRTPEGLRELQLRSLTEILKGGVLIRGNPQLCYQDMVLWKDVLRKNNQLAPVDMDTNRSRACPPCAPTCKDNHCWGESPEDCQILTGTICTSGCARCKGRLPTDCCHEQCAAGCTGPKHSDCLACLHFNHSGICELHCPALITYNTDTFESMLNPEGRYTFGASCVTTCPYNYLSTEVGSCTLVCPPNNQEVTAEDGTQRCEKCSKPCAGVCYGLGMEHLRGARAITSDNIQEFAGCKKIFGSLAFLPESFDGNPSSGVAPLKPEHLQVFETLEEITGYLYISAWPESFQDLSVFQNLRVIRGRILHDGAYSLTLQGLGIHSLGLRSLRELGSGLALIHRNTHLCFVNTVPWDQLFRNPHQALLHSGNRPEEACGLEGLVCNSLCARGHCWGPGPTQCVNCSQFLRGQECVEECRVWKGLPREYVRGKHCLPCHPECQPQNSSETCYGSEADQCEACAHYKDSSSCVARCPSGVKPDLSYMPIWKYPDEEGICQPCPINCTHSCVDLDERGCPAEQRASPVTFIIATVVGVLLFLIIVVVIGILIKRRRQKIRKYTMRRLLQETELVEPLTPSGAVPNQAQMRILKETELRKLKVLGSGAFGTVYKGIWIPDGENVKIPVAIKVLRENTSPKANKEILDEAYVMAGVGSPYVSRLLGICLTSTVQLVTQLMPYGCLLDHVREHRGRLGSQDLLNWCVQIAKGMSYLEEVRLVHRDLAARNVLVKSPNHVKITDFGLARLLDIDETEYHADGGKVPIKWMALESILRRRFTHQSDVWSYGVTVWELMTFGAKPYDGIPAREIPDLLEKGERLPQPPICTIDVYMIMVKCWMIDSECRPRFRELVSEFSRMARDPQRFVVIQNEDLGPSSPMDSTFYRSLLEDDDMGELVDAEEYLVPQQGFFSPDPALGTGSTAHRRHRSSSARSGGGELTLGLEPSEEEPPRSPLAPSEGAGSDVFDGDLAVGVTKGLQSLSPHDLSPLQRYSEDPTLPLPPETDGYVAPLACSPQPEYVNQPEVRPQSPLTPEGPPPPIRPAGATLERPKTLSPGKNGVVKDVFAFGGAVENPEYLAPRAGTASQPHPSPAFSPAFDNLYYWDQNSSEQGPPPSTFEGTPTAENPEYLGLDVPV
From the text: The variant nomenclature denotes types of variants (KO/KI) and the swapped regions with amino acid numbering. Amino acid positions were denoted basing on the numbering scheme of mature human HER2 sequences without its signal peptide. The expression levels of all variants were monitored by an anti-His polyclonal antibody. The binding profiles of 39S to these variants were characterized using a SPR based instrument ProteOn™ by capturing variants on sensor surfaces using anti-human and mouse Her2 polyclonal antibodies.
The binding characteristics of 39S to chimeric human/mouse variants were studied using a ProteOn™ XPR36 instrument (BioRad). Standard amine coupling was used to immobilize an anti-human or mouse Her2 polyclonal antibody (R&D System) in 10 mM sodium acetate (pH 5.0) to the surface of a GLC biosensor chip at ˜5000 resonance units (RU) for each channel. The chimeric proteins in cell culture supernatant were injected and captured by anti-human or mouse polyclonal antibodies onto the GLC surface with a ˜200RU response. Anti-HER2 mAb 39S was diluted in phosphate-buffered saline (PBS) (pH 7.4) with 0.005% Tween-20 from 10 nM to 0.625 nM (1:2 dilution), and injected at 100 μL/min for 180 sec with a 600-second dissociation time. Expression levels of chimeric variants were monitored by flowing anti-His polyclonal antibody (MedImmune) under the same conditions as injecting 39S. […]

[12] = tested on: NCI-N87 cell; assay: Proliferation inhibition assay in serum-containing media; format: cell-based, human
Protocol: Cell viability was determined using Cell Titer Glo from Promega according to manufacturer's instructions.

| The binding affinity of 39S (KD) [11] | Molecule | EC50 [1] [pM] | In vitro potency (EC50 in pM) [2] | In vitro potency (EC50 in pM) [3] | bystander effect [4] | in vivo activity (tumor growth) [5] | In vitro potency (EC50 in pM) [6] | In vitro potency (EC50 in pM) [7] | EC50 [8] [pM] | in vivo activity (tumor growth) [9] | In vitro potency (EC50 in pM) [10] | inhibition of cell proliferation [12] | inhibition of cell growth in combination ([12]; combined with trastuzumab or pertuzumab) |
| --- | --- | --- | --- | --- | --- | --- | --- | --- | --- | --- | --- | --- | --- |
|  | T-DM1 [reference compound] | 275 | Inactive | Inactive | does not have bystander effect | limited activity | Inactive | Inactive | 82.6 | resistant | Inactive |  |  |
| No | B1 |  |  |  |  |  |  |  |  |  |  | limited activity | strong synergistic effect |
